Reference: article PMC9412534, “Diindolylmethane Derivatives: New Selective Blockers for T-Type Calcium Channels” (Membranes, 2022)
Entries after “also recorded” stand apart in the source; their conditions may differ.

What was measured:
[1] = system: CaV1; experiment: HVA L-type calcium channel FLIPR assay in SH-SY5Y cells; format: cell-based, human; details: 1 µM CVID present, n = 3, read-out: IC50 CaV1 (HVA CaVs)
Protocol: (§1) The human embryonic kidney 293 (HEK 293) cell lines (from Emmanuel Bourinet, Montpellier, France) stably expressing CaV3.2 or CaV3.3 were cultured under 5% carbon dioxide at 37 °C in Dulbecco’s Modified Eagle Medium (DMEM) Glutamax (Gibco, Life Technologies, Carlsbad, CA, USA) supplemented with 10% (v/v) fetal bovine serum (FBS), 100 U/mL penicillin, 100 μg/mL streptomycin (Gibco, Life Technologies, Carlsbad, CA, USA), and 750 μg/mL geneticin (G418) (Gibco, Life Technologies). The Chinese Hamster Ovary (CHO) cell lines (Emmanuel Bourinet, Montpellier, France) expressing CaV3.1 were cultured under 5% carbon dioxide at 37 °C in Alpha Minimum Essential Media (MEM) Glutamax (Gibco, Life Technologies), supplemented with 10% (v/v) fetal bovine serum (FBS) and 300 μg/mL geneticin (G418) (Gibco, Life Technologies). The human neuroblastoma SH-SY5Y cells (Victor Diaz, Goettingen, Germany) were cultured under 5% carbon dioxide at 37 °C in RPMI 1640 antibiotic-free medium (Invitrogen, Carlsbad, CA, USA), supplemented with 15% FBS and 2 mM GlutaMAX™ (Invitrogen). D-PBS (Gibco, Life Technologies) was used to wash the cells, and 0.25% Trypsin-EDTA (Gibco, Life Technologies) was used to detach cells from the flask surface. They were split in a ratio of 1:5 (ideally 1000 cells/cm^2) when they reached 70–80% confluence (every 2–3 days). Transiently transfected CaV3.1 HEK293 T cells were used in FLIPR Assays. HEK 293 T cells were cultured under 5% carbon dioxide at 37 °C in DMEM supplemented with 10% (v/v) FBS. D-PBS was used to wash the cells, and 0.25% Trypsin-EDTA was used to detach cells from the flask surface. The cells were split and seeded at 6 million cells per T175 flask, to reach 70–80% confluence after 24 h. The next day, 12 μg DNA of human CaV3.1 was incubated in 900 μL serum-free DMEM with 36 μL FuGENE HD transfection reagent (Promega Corporation, Madison, WI, USA) (1:3 DNA/Fugene ratio) for 20 min, and then the mixture was added into the cell flask slowly, drop by drop. After the transfection, the cells were cultured under 5% carbon dioxide at 37 °C for 24 h and then moved to a 28 °C incubator.
SH-SY5Y cells were seeded into 384-well black wall clear bottom plates at a density of 15,000 cells per well, resulting in 90–95% confluence after 24 h. The media were then removed from the wells and replaced with 20 μL of 10% calcium 4 dye (Molecular Devices) in physiological salt solution (PSS) (containing 5.9 mM KCl, 1.4 mM MgCl2, 10 mM HEPES, 1.2 mM NaH2 PO4, 5 mM NaHCO3, 140 mM NaCl, 11.5 mM glucose, and 1.8 mM CaCl2, pH 7.4) with 0.1% BSA. As reported, for N-type calcium channel FLIPR assays the cells were pre-incubated with 10 µM nifedipine added in the dye to ensure full inhibition of L-type calcium responses. For L-type calcium channel FLIPR assays, the cells were pre-incubated with 1 µM CVID added in the dye to ensure full inhibition of N-type calcium responses. Positive control on the first reagent plate contained 15 μL of PSS (0.1% BSA), whereas PSS (0.1% BSA) containing 1 µM CVID and 10 µM nifedipine (final concentration) was used as a negative control. The fluorescence readings were recorded and converted as described previously, and agonist containing 90 mM KCl + 5 mM CaCl2 was used in the second addition.

[2] = molecular target: T1, recombinant hCaV3.2 channels (Homo sapiens, UniProt O95180); experiment: Whole-cell patch-clamp (QPatch), CaV3.2; format: cell-based; details: for IC50: whole-cell current, holding potential −90 mV, n = 3–5; for extent of block of CaV3.2 whole-cell inward Ca2+ current: QPatch
T1 construct: the only CaV3.2-expressing cells described
T1 sequence (O95180 whole entry): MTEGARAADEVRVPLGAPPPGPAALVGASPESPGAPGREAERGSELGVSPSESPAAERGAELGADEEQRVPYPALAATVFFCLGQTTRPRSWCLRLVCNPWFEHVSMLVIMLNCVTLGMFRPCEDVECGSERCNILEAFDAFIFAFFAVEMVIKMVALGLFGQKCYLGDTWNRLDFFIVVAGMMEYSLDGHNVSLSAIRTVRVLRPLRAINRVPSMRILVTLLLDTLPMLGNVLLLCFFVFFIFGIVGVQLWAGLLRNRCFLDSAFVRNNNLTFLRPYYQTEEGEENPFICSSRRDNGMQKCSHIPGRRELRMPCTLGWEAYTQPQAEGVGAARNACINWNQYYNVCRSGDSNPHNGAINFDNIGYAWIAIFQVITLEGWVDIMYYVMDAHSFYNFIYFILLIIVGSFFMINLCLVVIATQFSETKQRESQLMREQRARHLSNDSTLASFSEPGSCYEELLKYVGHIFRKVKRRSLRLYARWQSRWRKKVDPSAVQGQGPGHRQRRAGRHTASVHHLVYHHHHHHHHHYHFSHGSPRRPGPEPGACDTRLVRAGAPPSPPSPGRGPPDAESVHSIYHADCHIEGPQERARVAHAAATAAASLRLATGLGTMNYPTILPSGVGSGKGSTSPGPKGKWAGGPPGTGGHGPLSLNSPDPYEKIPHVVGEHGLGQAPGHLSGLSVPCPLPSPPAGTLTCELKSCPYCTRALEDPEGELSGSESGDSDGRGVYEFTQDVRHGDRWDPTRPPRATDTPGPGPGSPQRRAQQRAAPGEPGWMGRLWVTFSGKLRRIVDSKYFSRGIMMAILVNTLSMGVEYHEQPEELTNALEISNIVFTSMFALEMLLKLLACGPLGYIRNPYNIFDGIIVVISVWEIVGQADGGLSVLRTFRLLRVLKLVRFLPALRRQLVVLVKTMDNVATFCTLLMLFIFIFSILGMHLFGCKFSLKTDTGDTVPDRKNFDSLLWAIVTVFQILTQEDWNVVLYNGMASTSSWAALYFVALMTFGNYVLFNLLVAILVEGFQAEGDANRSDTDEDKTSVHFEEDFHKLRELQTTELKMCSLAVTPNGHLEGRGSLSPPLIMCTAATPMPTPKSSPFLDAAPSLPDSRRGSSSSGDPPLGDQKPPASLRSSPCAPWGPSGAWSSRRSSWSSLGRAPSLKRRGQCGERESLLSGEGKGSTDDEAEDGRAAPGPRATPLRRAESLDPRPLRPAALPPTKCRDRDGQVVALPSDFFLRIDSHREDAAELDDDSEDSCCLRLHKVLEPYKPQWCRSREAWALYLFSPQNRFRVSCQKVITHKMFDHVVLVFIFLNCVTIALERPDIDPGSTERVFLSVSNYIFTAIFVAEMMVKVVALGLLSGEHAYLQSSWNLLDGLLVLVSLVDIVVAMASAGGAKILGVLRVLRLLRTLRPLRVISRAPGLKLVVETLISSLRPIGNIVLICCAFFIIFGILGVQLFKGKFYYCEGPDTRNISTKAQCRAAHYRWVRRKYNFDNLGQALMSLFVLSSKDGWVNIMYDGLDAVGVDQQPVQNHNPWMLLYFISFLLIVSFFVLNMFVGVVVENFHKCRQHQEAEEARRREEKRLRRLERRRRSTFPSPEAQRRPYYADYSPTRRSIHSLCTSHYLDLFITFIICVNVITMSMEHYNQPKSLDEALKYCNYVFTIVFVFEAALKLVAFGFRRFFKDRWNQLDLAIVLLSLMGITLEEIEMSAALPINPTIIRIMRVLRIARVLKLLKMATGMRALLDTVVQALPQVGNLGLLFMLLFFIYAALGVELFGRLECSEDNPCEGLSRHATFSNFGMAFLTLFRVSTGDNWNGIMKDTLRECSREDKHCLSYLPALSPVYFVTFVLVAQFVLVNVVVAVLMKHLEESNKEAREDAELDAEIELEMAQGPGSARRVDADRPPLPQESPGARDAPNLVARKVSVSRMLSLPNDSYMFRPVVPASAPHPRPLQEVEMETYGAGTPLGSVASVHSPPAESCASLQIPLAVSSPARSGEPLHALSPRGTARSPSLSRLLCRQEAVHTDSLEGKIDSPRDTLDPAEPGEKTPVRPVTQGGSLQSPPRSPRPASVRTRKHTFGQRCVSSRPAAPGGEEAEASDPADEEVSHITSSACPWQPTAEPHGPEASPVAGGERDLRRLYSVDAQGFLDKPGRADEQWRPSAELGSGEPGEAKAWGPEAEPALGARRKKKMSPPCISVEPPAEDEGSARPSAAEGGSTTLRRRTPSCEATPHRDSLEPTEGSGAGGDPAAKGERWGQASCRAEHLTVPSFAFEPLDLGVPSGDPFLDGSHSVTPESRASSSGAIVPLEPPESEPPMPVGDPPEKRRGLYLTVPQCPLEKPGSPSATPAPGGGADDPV
Protocol: as §1
Whole-cell patch-clamp experiments were performed on an automated electrophysiology platform QPatch 16 X (Sophion Bioscience A/S, Ballerup, Denmark) in single-hole configuration using 16-channel planar patch chip QPlates (Sophion Bioscience A/S). The extracellular recording solution contained, in mM: TEACl 157, MgCl2 0.5, CaCl2 5, and HEPES 10; pH 7.4 adjusted with TEAOH; and osmolarity 320 mOsm. The intracellular pipette solution contained, in mM: CsF 140, EGTA 1, HEPES 10, and NaCl 10; pH 7.2 adjusted with CsOH; and osmolarity 325 mOsm. Compounds were diluted in extracellular recording solution with 0.1% BSA at the concentrations stated (DMSO ≤ 0.1%), and the effects of compounds were compared to the control (extracellular solution with 0.1% BSA) parameters within the same cell. Compounds’ incubation time varied from two (for the highest concentration) to five (for the lowest concentration) minutes by applying the voltage protocol 10–30 times at 10 s intervals to ensure steady-state inhibition was achieved. The effects of compounds were obtained using 200 ms voltage steps to peak potential from a holding potential of −90 mV. Current–voltage (I–V) relationships were obtained by holding the cells at a potential of −100 mV before applying 50 ms pulses to potentials from −75 to +50 mV every 5 s in 5 mV increments. […]

[3] = system: T-47D cells; experiment: Cell viability MTT assay, T-47D; format: cell-based, human; details: for viability at 50 µM: n = 4; for IC50: n = 3
Protocol: Human breast cancer cell line MCF-7 and T-47D, lung cancer cell line A549, and colon cancer cell line HT-29 were cultured under 5% carbon dioxide at 37 °C in DMEM Glutamax (Gibco, Life Technologies) supplemented with 10% (v/v) FBS. They were split in a ratio of 1:3–1:6 (ideally 2–4 × 10,000 cells/cm^2) when they reached 70–80% confluence using 0.25% Trypsin-EDTA. For cell viability MTT assay, cells were seeded into 96-well clear bottom culture plates (Corning, Lowell, MA, USA) at a density of 5 × 10^3 cells/well and settled at 37 °C for 24 h.
Seeded cells were treated with various concentrations of compounds for desired time period (24, 48 and 72 h). After the treatments, the media were removed from each well, and replaced with 25 μL of serum-free media and 25 μL of MTT Reagent (cat. no., ab211091; Abcam, Cambridge, MA, USA). The plate was then incubated at 37 °C for 3 h, and 75 μL of MTT Solvent (cat. no., ab211091; Abcam) was added into each well after incubation. The absorbance was evaluated at 590 nm. Cell-wells treated with 0.1% DMSO were used as positive control and no cell-wells were used as background control.

[4] = Homo sapiens, T47D, 72 h treatment
[5] = Homo sapiens, T47D, 72 h, 72 h treatment

IC50 [1] | IC50 [2] | IC50 [3, 5] | IC50 ([3]; 72 h treatment) | IC50 ([3]; Homo sapiens, T47D, 24 h, 24 h treatment) | IC50 ([3]; Homo sapiens, T47D, 48 h, 48 h treatment) | SMILES | viability at 50 µM [3, 4] | extent of block of CaV3.2 whole-cell inward Ca2+ current [2]
68.6 ± 6.65 µM | 21.1 ± 1.19 µM | 36 µM |  |  |  | c1ccc2c(Cc3c[nH]c4ccccc34)c[nH]c2c1 [DIM, 3,3′-diindolylmethane, reference compound] | 18.9 ± 1.15% | 
61 ± 3.99 µM | ~50 µM | 44 µM |  |  |  | O=C(c1c[nH]c2ccccc12)c1c[nH]c2ccccc12 [DIM-one, 3,3′-diindolylmethanone] | 50.6 ± 2.08% | poor inhibition
38.8 ± 5.01 µM |  | 4 µM | 4.1 µM | 13.8 µM | 3.9 µM | O=C(c1c[nH]c2cc(Br)ccc12)c1c[nH]c2cc(Br)ccc12 [IV] | 6.14 ± 0.55% | 

SMILES | IC50 [1] | IC50 [2] | IC50 [3, 5] | IC50 ([3]; 72 h treatment) | IC50 ([3]; Homo sapiens, T47D, 24 h, 24 h treatment) | IC50 ([3]; Homo sapiens, T47D, 48 h, 48 h treatment) | viability at 50 µM [3, 4] | extent of block of CaV3.2 whole-cell inward Ca2+ current [2]
O=C(c1cn(Cc2ccccc2)c2ccccc12)c1cn(Cc2ccccc2)c2ccccc12 [IX, bis(1-benzyl-1H-indol-3-yl)methanone] | 48 ± 2.79 µM | 2.97 ± 0.29 µM |  |  |  |  |  | partially blocked; also recorded: only partial inhibition
